Test results: patent US7521466B2, “Dipeptide phenyl ethers” (Bexel Pharmaceuticals, Inc., priority 2003, dated 2009)
Where a name gives a salt, the structure may show the parent alone.

Tests used:
db/db mice [1] = assay: Body weight gain, food and water intake in db/db mice; assay type: in vivo; conditions: 50 mg/kg orally, 15-21 days
Experimental: The db/db mice have defective leptin receptor and show hyperglycemia with significant weight gain. The compound B at a dose of 50 mg/kg body weight was given orally in these animals for a period of 15-21 days.

ob/ob mice [2] = assay: Hyperglycemia and OGTT in diabetic obese ob/ob mice; assay type: in vivo; conditions: 50 mg/kg orally, 15-21 days
Experimental: The ob/ob mice is lacking leptin signaling and show hyperglycemia with significant weight gain. The compounds at a dose 50 mg/kg body weight were given orally in these animals for a period of 15-21 days.

[3] = test system: Human THP-1 monocyte cells; assay: Cell viability of THP-1 monocyte cells; assay type: cell-based; conditions: THP-1 cells, highest concentration of the compound
TNFα = assay: LPS induced TNFα production in THP-1 monocyte cells; assay type: cell-based, Human; conditions: THP-1 cells, LPS 1 μg/ml, 24 hours, ELISA
Experimental: (§1) Human THP-1 monocyte cells were cultured and incubated with compounds A and B at different concentrations. Cells were then challenged with lipopolysaccharides (LPS) at a concentration of (1 μg/ml) for 24 hours. Cell supernatants were then analyzed for the presence of TNFα, IL-1β and IL-6 cytokines by antibody directed enzyme-linked immunoassay (FIGS. 8A, 8B, and 8C).

ob/ob mice [4] = assay: Body weight gain, food and water intake in obese diabetic ob/ob mice; assay type: in vivo; conditions: 50 mg/kg orally, 15-21 days
Experimental: The ob/ob mice are lacking circulating leptin r and show hyperglycemia with significant weight gain. Both the compounds A and B at a dose of 50 mg/kg body weight were given orally in these animals for a period of 15-21 days.

ob/ob mice [5] = assay: Lipid profile (TG, VLDL, cholesterol, HDL) in ob/ob mice; assay type: in vivo; conditions: 15-day treatment study
Source text: The leptin knock-out ob/ob mice is also considered a good model for insulin resistance and hyperlipidemia. Treatment of these animals with the compounds A and B lowered serum triglycerides (FIG. 4A) and VLDL (FIG. 4B) concentration by >50%.

IL-6 = assay: LPS induced IL-6 production in THP-1 monocyte cells; assay type: cell-based, Human; conditions: THP-1 cells, LPS 1 μg/ml, 24 hours, ELISA
Experimental: as §1

db/db mice [6] = assay: Testing hyperglycemia in diabetic db/db mice; assay type: in vivo; conditions: for improvement of hyperglycemic conditions (blood glucose): db/db mice, 5, 10 and 50 mg/kg body weight orally, 15-21 days; for drop in blood glucose in treated animals compared to control groups: db/db mice, time course experiment following the oral dose (FIGS. 1A, 2A)
Experimental: The hypoglycemic effect of compounds A and B have been examined in spontaneous animal models of diabetes, leptin receptor knockout (db/db mice). The db/db mice have defective leptin receptor and show hyperglycemia with significant weight gain. The compound at a dose of 5, 10 (FIGS. 1C, 2C) and 50 mg/kg body weight (FIGS. lB, 2B) was given orally in these animals for a period of 15-21 days.

IL-1β = assay: LPS induced IL-1β production in THP-1 monocyte cells; assay type: cell-based, Human; conditions: THP-1 cells, LPS 1 μg/ml, 24 hours, ELISA
Experimental: as §1

[7] = test system: 3T3-L1 differentiated adipocytes; assay: Basal glucose uptake in 3T3-L1 adipocytes; assay type: cell-based; conditions: 72 hr treatment, absence of insulin, control 0.1% DMSO
Experimental: Basal glucose uptake was carried out in 3T3-L1 differentiated adipocytes. After 72 hr of treatment they were challenged with either rosiglitazone or Compound A, then glucose uptake was carried out in absence of insulin. The control was 0.1% DMSO. Cytochalasin B was added in another set of wells to show the effect is receptor mediated.

3T3-L1 fibroblasts = assay: Adipogenesis (lipid accumulation, oil red O) in 3T3-L1 fibroblasts; assay type: cell-based; conditions: 0.1 and 10 uM, 7 days, oil red O staining
Experimental: Rosiglitazone and Compound A at 0.1 and 10 uM concentrations, were treated for 7 days and at the end lipid droplets were stained with oil red O and visualized under microscope.

Row | Structure (SMILES) | body weight gain compared to controls (db/db mice [1]) | food intake compared to control groups (db/db mice [1]) | water intake compared to control groups (db/db mice [1]) | OGTT (oral glucose tolerance) (ob/ob mice [2]) | improvement of hyperglycemic conditions (ob/ob mice [2]) | cell viability [3] | inhibition of TNFα production (TNFα) | body weight gain compared to controls (ob/ob mice [4]) | food intake compared to control groups (ob/ob mice [4]) | water intake compared to control groups (ob/ob mice [4]) | decrease in serum cholesterol concentrations (ob/ob mice [5]) [%] | inhibition of IL-6 production (IL-6) | improvement of hyperglycemic conditions (blood glucose) (db/db mice [6]) | drop in blood glucose in treated animals compared to control groups (db/db mice [6]) [%] | inhibition of IL-1β production (IL-1β) | basal glucose uptake compared to control cells [7] | adipogenesis (lipid accumulation) compared to rosiglitazone (3T3-L1 fibroblasts)
1 | COC(=O)C(Cc1ccc(Oc2ccc(C=C3SC(=O)NC3=O)cc2)cc1)NC(=O)C(N)Cc1c[nH]cn1.Cl.Cl (centres unmarked) [Compound B, 5-[4-(4-(2-(2-Amino-3-imidazol-4-ylpropanamido)-2-methoxycarbonylethyl)phenoxy)benzylidene]thiazolidin-2,4-dione dihydrochloride] | significant reductions in body weight gain | improved significantly | improved significantly | significant improvement of OGTT | significant improvements of hyperglycemic conditions | No significant change in cell viability | inhibit the production of three major pro-inflammatory cytokines in a dose dependent manner | significant reductions in body weight gain | improved significantly | improved significantly | 19 | inhibit the production of three major pro-inflammatory cytokines in a dose dependent manner | significant improvements of hyperglycemic conditions | 24 | inhibit the production of three major pro-inflammatory cytokines in a dose dependent manner |  | 
2 | COC(=O)C(Cc1ccc(Oc2ccc(CC3SC(=O)NC3=O)cc2)cc1)NC(=O)C(N)Cc1cnc[nH]1 (centres unmarked) [Compound A, 5-[4-(4-(2-(2-amino-3-imidazol-4-ylpropanamido)-2-methoxycarbonylethyl)phenoxy)benzyl]thiazolidin-2,4-dione dihydrochloride] |  |  |  | significant improvement of OGTT | significant improvements of hyperglycemic conditions | No significant change in cell viability | inhibit the production of three major pro-inflammatory cytokines in a dose dependent manner | significant reductions in body weight gain | improved significantly | improved significantly | 19 | inhibit the production of three major pro-inflammatory cytokines in a dose dependent manner | significant improvements of hyperglycemic conditions | 30 | inhibit the production of three major pro-inflammatory cytokines in a dose dependent manner | significant increase in basal glucose uptake | did not show any adipogenesis
